Measurements published in patent US6605625B2, “Ortho, meta-substituted bisaryl compounds, processes for their preparation, their use as medicaments, and pharmaceutical preparations comprising them” (Aventis Pharma Deutschland GmbH, priority 2000, dated 2003).

Molecular target: T1, Kv1.5 channels from humans (Homo sapiens, UniProt P22460)
T1 construct: expressed in transfected cells; host or cells: Xenopus laevis oocytes injected with in vitro synthesized RNA
Assay: Kv1.5 currents in Xenopus oocytes, 2-microelectrode voltage clamp
Type: cell-based
Conditions: human Kv1.5 expressed in Xenopus laevis oocytes; voltage jumps to 0 mV and 40 mV, 500 ms; room temperature; inhibition of Kv1.5 control current, Hill equation
Procedure: Kv1.5 channels from humans were expressed in Xenopus oocytes. To this end, oocytes from Xenopus laevis were first isolated and defolliculated. RNA coding for Kv1.5 synthesized in vitro was then injected into these oocytes. After a Kv1.5 protein expression for 1-7 days, Kv1.5 currents were measured on the oocytes using the 2-microelectrode voltage clamp technique. The Kv1.5 channels were in this case as a rule activated using voltage jumps to 0 mV and 40 mV lasting 500 ms. The bath was rinsed using a solution of the following composition: NaCl 96 mM, KCl 2 mM, CaCl2 1.8 mM, MgCl2 1 mM, HEPES 5 mM (titrated with NaOH to pH 7.4). These experiments were carried out at room temperature. The following were employed for data acquisition and analysis: Gene clamp amplifier (Axon Instruments, Foster City, USA) and MacLab D/A converter and software (ADInstruments, Castle Hill, Australia). The substances according to the invention were tested by adding them to the bath solution in different concentrations. The effects of the substances were calculated as the percentage inhibition of the Kv1.5 control current which was obtained when no substance was added to the solution. The data were then extrapolated using the Hill equation in order to determine the inhibition concentrations IC50 for the respective substances.

T1 sequence (P22460 whole entry): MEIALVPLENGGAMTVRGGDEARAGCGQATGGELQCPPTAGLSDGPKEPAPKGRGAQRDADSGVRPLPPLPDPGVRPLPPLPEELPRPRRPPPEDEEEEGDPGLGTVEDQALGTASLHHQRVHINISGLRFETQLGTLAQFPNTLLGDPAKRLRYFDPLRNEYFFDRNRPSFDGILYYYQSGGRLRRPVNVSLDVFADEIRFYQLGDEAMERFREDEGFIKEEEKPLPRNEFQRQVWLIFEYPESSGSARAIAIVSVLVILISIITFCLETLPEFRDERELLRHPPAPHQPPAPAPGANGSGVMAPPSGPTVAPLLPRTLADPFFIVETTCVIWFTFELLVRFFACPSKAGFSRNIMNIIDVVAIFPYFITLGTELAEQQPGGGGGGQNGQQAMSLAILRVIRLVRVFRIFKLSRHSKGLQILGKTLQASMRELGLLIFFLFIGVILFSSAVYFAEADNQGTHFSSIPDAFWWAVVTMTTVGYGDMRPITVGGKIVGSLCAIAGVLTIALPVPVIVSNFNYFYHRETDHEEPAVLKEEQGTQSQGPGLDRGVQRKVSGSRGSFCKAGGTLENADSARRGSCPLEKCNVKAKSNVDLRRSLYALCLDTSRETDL

IC50 | Structure (SMILES)
< 100 µM | CC(C)(C)OC(=O)NCc1ccccc1-c1cccc(C(=O)NCc2ccc(F)cc2F)c1 [Example 2]
< 100 µM | CC(C)(C)OC(=O)NCc1ccccc1-c1ccc(Cl)c(C(=O)NCc2ccc(F)cc2F)c1 [Example 3]
6.1 µM | Cc1ccc(C(=O)NCCC(C)C)cc1-c1ccccc1CNC(=O)OC(C)(C)C [Example 4]
6 µM | CC(C)CCNC(=O)c1cccc(-c2ccccc2CNC(=O)OC(C)(C)C)n1 [Example 5]
< 100 µM | CC(C)(C)OC(=O)NCc1ccccc1-c1cccc(C(=O)NCc2ccc(F)cc2F)n1 [Example 6]
< 100 µM | CC(C)CCNC(=O)c1cncc(-c2ccccc2CNC(=O)OC(C)(C)C)c1 [Example 7]
< 100 µM | CC(C)(C)OC(=O)NCc1ccccc1-c1cncc(C(=O)NCc2ccc(F)cc2F)c1 [Example 8]
3 µM | COc1ccc(NC(=O)c2cccc(-c3ccccc3CNC(=O)OC(C)(C)C)n2)cc1 [Example 9]
< 100 µM | CC(C)C[C@H](NC(=O)c1cccc(-c2ccccc2CNC(=O)OC(C)(C)C)n1)C(N)=O [Example 10]
10 µM | CC(C)(C)OC(=O)NCc1ccccc1-c1cccc(C(=O)NCCc2ccccn2)n1 [Example 11]
2.2 µM | C[C@H](OC(=O)NCc1ccccc1-c1cccc(C(=O)NCCc2ccccn2)n1)c1ccccc1 [Example 12, (S)-1-(Phenylethyl) {2-[6-(2-pyridin-2-ylethylcarbamoyl)pyridin-2-yl]benzyl}carbamate]
7 µM | Cc1ccc(C(=O)NCCC(C)C)cc1-c1ccccc1CNC(=O)OCc1ccccc1 [Example 13]
< 100 µM | CC(C)CCNC(=O)c1cccc(-c2ccccc2CNC(=O)OCc2ccccc2)c1 [Example 14]
< 100 µM | O=C(NCc1ccccc1-c1cccc(C(=O)NCc2ccc(F)cc2F)c1)OCc1ccccc1 [Example 15]
< 100 µM | O=C(NCc1ccccc1-c1cccc(C(=O)NCc2ccc(F)cc2F)n1)OCc1ccccc1 [Example 16]
< 100 µM | CC(C)CCNC(=O)c1cccc(-c2ccccc2CNC(=O)OCc2ccccc2)n1 [Example 17]
4.2 µM | CC(C)C[C@H](NC(=O)c1cccc(-c2ccccc2CNC(=O)O[C@@H](C)c2ccccc2)n1)C(N)=O [Example 18]
2 µM | COc1ccc(NC(=O)c2cccc(-c3ccccc3CNC(=O)O[C@@H](C)c3ccccc3)n2)cc1 [Example 19]
< 100 µM | COc1ccc(CC(=O)NCc2ccccc2-c2cccc(C(=O)Nc3ccc(OC)cc3)n2)cc1 [Example 20, 6-(2-{[2-(4-Methoxyphenyl)acetylamino]methyl}phenyl)pyridine-2-carboxylic acid (4-methoxyphenyl)amide]
5.7 µM | COc1ccc(CC(=O)NCc2ccccc2-c2cccc(C(=O)NCc3ccc(F)cc3F)n2)cc1 [Example 21]
< 100 µM | COc1ccc(CC(=O)NCc2ccccc2-c2cccc(C(=O)NCCc3ccccn3)n2)cc1 [Example 22]
< 100 µM | COc1ccc(CCC(=O)NCc2ccccc2-c2cccc(C(=O)Nc3ccc(OC)cc3)n2)cc1 [Example 23]
< 100 µM | CCOc1ccc(C(=O)NCc2ccccc2-c2cccc(C(=O)Nc3ccc(OC)cc3)n2)cc1 [Example 24]
7.4 µM | COc1ccc(CC(=O)NCc2ccccc2-c2cncc(C(=O)NCc3ccc(F)cc3F)c2)cc1 [Example 26]
6 µM | COc1ccc(CC(=O)NCc2ccccc2-c2cccc(C(=O)NCc3ccc(F)cc3F)c2)cc1 [Example 27]
4.2 µM | COc1ccc(CC(=O)NCc2ccccc2-c2cccc(C(=O)NCCC(C)C)c2)cc1 [Example 28]
4 µM | COc1ccc(CC(=O)NCc2ccccc2-c2cc(C(=O)NCCC(C)C)ccc2C)cc1 [Example 29]
3.1 µM | COc1ccc(CCC(=O)NCc2ccccc2-c2cc(C(=O)NCCC(C)C)ccc2C)cc1 [Example 30]
